Test results reported in PubChem BioAssay (NCI).
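Five compound concentrations were applied to cells in 96-well plates for 48 hours; endpoints were derived by simple linear interpolation of the resulting dose-response curve. GI50 marks 50% less growth. Definition used: TGI = concentration required for complete inhibition of growth.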

System: MDA-MB-468 breast
Experiment: NCI anticancer screen, dose series, 48 h

Row | SMILES | GI50 [µM] | TGI [µM]
1 | O=C(Nc1ccc(Cl)cc1)Nc1ccc(Oc2nncc3ccccc23)cc1 | 0.752 | 2.52
2 | COc1ccccc1/C=C/C=N/NC1=NC2C(S1)N(C)C(=O)N2C (stereo not drawn) | 2.13 | 7.46
3 | CCOC(=O)c1ccc2[nH]c(O)c(C(=Nc3ccc(N(C)C(=O)CN4CCN(C)CC4)cc3)c3ccccc3)c2c1 | 0.827 | 2.29
4 | CN1C(=O)N(C)C2C1NN=c1s/c(=C\c3ccccc3F)c(=O)n12 (stereo not drawn) | 0.211 | > 100
5 | CCN(CC)CCOc1nc2c3ccc(Cl)cc3nn2c2ccccc12 | 1.51 | 3.57
6 | CN(C)c1ccc(-c2c(NC(C)(C)C)nc3c(OCCc4ccccc4)cccn23)cc1 | 2.29 | 6.28
7 | Cc1ccc(-c2cc3c(NC(=O)C4CC4)ncnc3o2)cc1 | > 25 | > 25
8 | COc1ccc(C(=O)n2nc(/C=C/c3ccc(O)c(OC)c3)cc2/C=C/c2ccc(O)c(OC)c2)cc1 | 0.37 | 2
9 | Cc1ccc(NCCN2CCCCC2)c2c(=O)c3ccccc3sc12 | 2.38 | 5.19
10 | CCN(CC)CCNC(=O)c1cn2ncnc(Oc3ccc(NC(=O)Nc4ccc(Cl)c(C(F)(F)F)c4)cc3)c2c1C | 1.67 | 3.29
11 | C[C@H](O)CNc1cc(-c2[nH]c3cccnc3c2-c2ccc(F)cc2)ccn1 | 7.54 | > 25
12 | Cn1c2c(c3ccc(-c4ccn[nH]4)cc3c1=O)C(=O)c1ccccc1-2 | 4.9 | > 100
13 | CSCCC(NC(=O)CNC(=O)C(CC(=O)O)NC(=O)C(NC(=O)C(NC(=O)C(NC(=O)CNC(=O)C(CCC(N)=O)NC(=O)C(CCSC)NC(=O)C(CC(=O)O)NC(=O)C(C)NC(=O)C(C)NC(=O)C(NC(=O)C(CO)NC(=O)C(N)CC(C)C)C(C)O)C(C)C)C(C)C)C(C)O)C(=O)NC(C)C(=O)NC(CO)C(=O)NCC(=O)NC(CC(C)C)C(=O)NC(CC(=O)O)C(=O)NC(CCCCN)C(=O)NC(CC(=O)O)C(=O)NC(Cc1ccc(O)cc1)C(=O)NC(CC(C)C)C(=O)NC(CCCCN)C(=O)N1CCCC1C(=O)NC(CC(=O)O)C(=O)NC(CC(=O)O)C(=O)O (stereo not drawn) | > 82.5 | > 82.5
14 | O=C1/C(=C/c2ccc(O)c(O)c2)COc2ccc(-c3ccccc3)cc21 | 0.731 | 2.64
15 | Clc1ccc(N2CCN(CCCN3CCN(c4cccc(Cl)c4)CC3)CC2)cc1 | 1.63 | 10.8
16 | Oc1ccccc1N=Cc1c(O)ccc2ccccc12 | 7.09 | 29.5
17 | CCOC(=O)C1=C(N)CCC1C (stereo not drawn) | > 100 | > 100
18 | Cc1cc(C)c(C#N)c(SCC(=O)c2sc3c(C#N)c(C)cc(C)[n+]3c2[O-])n1 | 0.266 | 
19 | O=C(COc1cccc(/C=C2/Oc3ccccc3C2=O)c1)Nc1nccs1 | 2.16 | 9.07
20 | Cc1cc(C(=O)NC(C)(C)C)cc(C#Cc2ccc3c4c(oc3c2)C(C)(C)c2cc(NS(C)(=O)=O)ccc2C4=O)n1 | 3.18 | > 100
21 | CCc1c2c(nc3ccc(OC(=O)NCc4ccc(B5OC(C)(C)C(C)(C)O5)cc4)cc13)-c1cc3c(c(=O)n1C2)COC(=O)[C@]3(O)CC | < 0.0126 | 0.0894
22 | O=C(O[C@H]1CN[C@H](C#Cc2cc3ncnc(Nc4ccc5c(cnn5Cc5ccccc5)c4)c3s2)C1)N1CCOCC1 | 0.209 | 2.58
23 | CC(C)CCC[C@@H](C)[C@H]1CCC2C3=CCn4c(=O)ccc(=O)n4C3CC[C@@]21C (stereo partly drawn) | 0.887 | 2.98
24 | COC(=O)C1CCC(NC(=O)c2csc([C@@H](C[C@H](C(C)C)N(C)C(=O)[C@@H](NC(=O)[C@H]3CCCCN3C)C(C)C)OC(C)=O)n2)CC1 (stereo partly drawn) | 0.00245 | 0.00683
25 | CS(=O)(=O)Nc1ccc(Nc2c3ccccc3nc3cc(N)ccc23)cc1 | 0.106 | 0.973
26 | COc1cc(-c2cc(/C=C/C(=O)c3ccc(N)cc3)[nH]n2)cc(OC)c1OC | 1.01 | 2.91
27 | CN1CCN(c2ccc(N3Cc4ccccc4OC4=C3C(=O)c3c(O)ccc(O)c3C4=O)cn2)CC1 | 0.229 | 0.578
